This is an account of results in patent US10428074B2, “Pyrrole heteroaryl ring derivative and method of use thereof” (Jiangsu Hengrui Medicine Co., Ltd., priority 2011, dated 2019).

One series concerns T cells. The experiment in a line: Proliferation inhibition assay on T cells (PBMC, anti-CD3, IL-2). The series is classed as cell-based, human. The conditions noted are these: Homo sapiens, T-cell, IL-2 10 ng/mL. The text has this: The following in vitro assay is to determine the activity of the compounds of the present invention for inhibiting the proliferation of T cells.
The activity is represented by the IC50 value.
The general procedures of the assay are given as follows: first, the PBMC cell line (purchased from Shanghai Blood Center) was centrifuged, the supernatant was removed, and the cells counted. […] Then, the cells were washed 3 times, resuspended, diluted to 2×10^6/mL, and then mixed with recombinant human IL-2 (purchased from Peprotech, Catalog Number: 200-02) to a concentration of 10 ng/mL, and cultured for another 3 days. The cells were washed again 3 times, and diluted to 5×10^5/mL. 80 μL of the cells were seeded in each well of a 96-well cell culture plate. […] To he control wells, 10 μL culture medium were added. The plate was placed in an incubator. After incubating for 1 hr, negative control wells were mixed with 10 μL of culture medium, and the rest of the wells were mixed with IL-2 to a concentration of 10 ng/mL, and incubated continuously for 72 hours. […] IC50 values were calculated from the data of inhibition rates at various concentrations of the test compounds.

For series [1], the system named is human erythroid leukemia cell line TF-1. In words: Proliferation inhibition assay on TF-1 cells mediated by IL-4. The settings on record: 10 ng/mL IL-4, 72 hours. The series is classed as cell-based. The source says:
The following in vitro assay is to determine the activity of the compounds of the present invention for inhibiting the proliferation of human erythroid leukemia cell line TF-1.
The activity is represented by the IC50 value, which can not only reflect the activity of a test compound for inhibiting JAK2 and JAK3 kinase, but can also reflect the selectivity of a test compound for JAK2 and JAK3 kinase.
The general procedures of the assay are given as follows: first, the TF-1 cells (purchased from ATCC, Catalog number: CRL 2003) were seeded in a 96-well cell culture plate at a suitable cell concentration (8000 cells/mL medium), and 10 ng/mL IL-4 (Invitrogen, Catalog Number: PHC0044) were added to each well. Then 10× serial concentration gradient of test compounds solutions (10000, 1000, 100, 10, 1 and 0.1 nM) were prepared, and then the 10× compound solutions prepared above were added to the 96-well cell culture plate containing IL-4. After the cell plates were cultured continuously for 72 hours, the activity of the test compounds for inhibiting the cell proliferation was determined by using a Cell Counting Kit-8 (purchased from Dojindo, Catalog Number: CK04). IC50 values were calculated from the data of the inhibition rates at various concentrations of the test compounds.

The nature of series [2]: Pharmacokinetics assay in rats, intragastric administration. It is filed as in vivo, Sprague-Dawley (SD) rats. The conditions noted are these: SD rats, 10 mg/kg. As for the experimental part:
Rats were used as test animals. […] The pharmacokinetic behavior of the compounds of the present invention was studied and evaluated in rats.
56 Healthy adult Sprague-Dawley (SD) rats, half male and half female, purchased from SINO-BRITSH SIPPR/BK LAB.
The appropriate amount of test compounds were weighed and mixed with 1.0 mL of dimethyl sulfoxide to prepare a 1.0 mg/mL suspension.
After an overnight fast, SD rats were administered intragastrically at a dose of 10.0 mg/kg and an administration volume of 10 mL/kg.
The plasma samples were stored at −20° C. The rats were fed 2 hours after administration.
Content determination of the test compounds in rat plasma after intragastrically administering at different concentrations: 50 μL of rat plasmas taken at various time points after administration were mixed with 50 μL of internal standard solution and 100 μL of methanol and mixed for 3 minutes by a vortexer. The mixture was centrifuged for 10 minutes at 13,500 rpm. 10 μL of the supernatant was taken from the plasma sample and analyzed by LC-MS/MS.

For the next series, the target named is JAK1 kinase (Homo sapiens, UniProt P23458). The experiment in a line: Assay for inhibiting JAK1 kinase (in vitro kinase assay). The series is classed as biochemical. The conditions noted are these: 20 μM ATP; read-out: IC50 (JAK1/Bio). As for the experimental part:
In vitro activity of compounds of the present invention for inhibiting JAK1 kinase was determined by the following method.
IC50 values of test compounds was calculated from the data of the test compounds in inhibiting the activity of JAK1 kinase at different concentrations.

The next series deals with JAK2 kinase (Homo sapiens, UniProt O60674). In words: Assay for inhibiting JAK2 kinase (in vitro kinase assay). It is filed as biochemical. The settings on record: 20 μM ATP; read-out: IC50 (JAK2/Bio). As for the experimental part:
In vitro activity of compounds of the present invention for inhibiting JAK2 kinase was determined by the following method.

A further series deals with JAK3 kinase (Homo sapiens, UniProt P52333). The experiment in a line: Assay for inhibiting JAK3 kinase (in vitro kinase assay). It is filed as biochemical. The settings on record: 20 μM ATP; read-out: IC50 (JAK3/Bio). The protocol:
In vitro activity of compounds of the present invention for inhibiting JAK3 kinase was determined by the following method.

Each structure is given as a SMILES string.

Sequence of JAK3 kinase (P52333 whole entry, looked up): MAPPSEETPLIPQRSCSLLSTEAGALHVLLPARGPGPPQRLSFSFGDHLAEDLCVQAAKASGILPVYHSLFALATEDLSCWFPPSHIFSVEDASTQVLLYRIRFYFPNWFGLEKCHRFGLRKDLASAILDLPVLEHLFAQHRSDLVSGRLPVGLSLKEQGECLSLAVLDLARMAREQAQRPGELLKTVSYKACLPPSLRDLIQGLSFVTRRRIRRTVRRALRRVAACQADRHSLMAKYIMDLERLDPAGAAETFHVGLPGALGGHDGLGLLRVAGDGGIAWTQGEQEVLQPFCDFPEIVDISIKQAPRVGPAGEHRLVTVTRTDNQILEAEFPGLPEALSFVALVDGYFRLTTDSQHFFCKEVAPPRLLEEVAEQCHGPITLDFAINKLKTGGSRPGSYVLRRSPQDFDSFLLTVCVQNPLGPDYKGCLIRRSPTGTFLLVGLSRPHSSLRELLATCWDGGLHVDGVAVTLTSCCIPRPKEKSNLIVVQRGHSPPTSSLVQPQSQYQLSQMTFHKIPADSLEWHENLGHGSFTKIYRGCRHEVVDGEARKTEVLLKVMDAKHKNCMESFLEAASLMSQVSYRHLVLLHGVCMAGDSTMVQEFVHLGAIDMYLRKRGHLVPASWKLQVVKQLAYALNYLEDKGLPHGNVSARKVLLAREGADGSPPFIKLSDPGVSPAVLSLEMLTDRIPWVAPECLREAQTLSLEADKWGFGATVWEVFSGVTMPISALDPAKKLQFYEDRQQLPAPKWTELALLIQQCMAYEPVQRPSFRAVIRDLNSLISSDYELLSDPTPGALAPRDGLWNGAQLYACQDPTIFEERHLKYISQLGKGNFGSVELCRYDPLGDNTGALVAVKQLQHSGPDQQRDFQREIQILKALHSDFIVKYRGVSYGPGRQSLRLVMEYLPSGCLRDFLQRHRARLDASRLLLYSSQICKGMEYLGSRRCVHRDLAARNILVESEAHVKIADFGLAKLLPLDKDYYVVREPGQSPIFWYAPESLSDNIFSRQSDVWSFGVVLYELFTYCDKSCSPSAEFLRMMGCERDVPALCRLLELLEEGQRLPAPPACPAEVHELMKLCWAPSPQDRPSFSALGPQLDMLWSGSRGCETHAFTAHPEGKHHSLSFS
Sequence of JAK2 kinase (O60674 whole entry, looked up): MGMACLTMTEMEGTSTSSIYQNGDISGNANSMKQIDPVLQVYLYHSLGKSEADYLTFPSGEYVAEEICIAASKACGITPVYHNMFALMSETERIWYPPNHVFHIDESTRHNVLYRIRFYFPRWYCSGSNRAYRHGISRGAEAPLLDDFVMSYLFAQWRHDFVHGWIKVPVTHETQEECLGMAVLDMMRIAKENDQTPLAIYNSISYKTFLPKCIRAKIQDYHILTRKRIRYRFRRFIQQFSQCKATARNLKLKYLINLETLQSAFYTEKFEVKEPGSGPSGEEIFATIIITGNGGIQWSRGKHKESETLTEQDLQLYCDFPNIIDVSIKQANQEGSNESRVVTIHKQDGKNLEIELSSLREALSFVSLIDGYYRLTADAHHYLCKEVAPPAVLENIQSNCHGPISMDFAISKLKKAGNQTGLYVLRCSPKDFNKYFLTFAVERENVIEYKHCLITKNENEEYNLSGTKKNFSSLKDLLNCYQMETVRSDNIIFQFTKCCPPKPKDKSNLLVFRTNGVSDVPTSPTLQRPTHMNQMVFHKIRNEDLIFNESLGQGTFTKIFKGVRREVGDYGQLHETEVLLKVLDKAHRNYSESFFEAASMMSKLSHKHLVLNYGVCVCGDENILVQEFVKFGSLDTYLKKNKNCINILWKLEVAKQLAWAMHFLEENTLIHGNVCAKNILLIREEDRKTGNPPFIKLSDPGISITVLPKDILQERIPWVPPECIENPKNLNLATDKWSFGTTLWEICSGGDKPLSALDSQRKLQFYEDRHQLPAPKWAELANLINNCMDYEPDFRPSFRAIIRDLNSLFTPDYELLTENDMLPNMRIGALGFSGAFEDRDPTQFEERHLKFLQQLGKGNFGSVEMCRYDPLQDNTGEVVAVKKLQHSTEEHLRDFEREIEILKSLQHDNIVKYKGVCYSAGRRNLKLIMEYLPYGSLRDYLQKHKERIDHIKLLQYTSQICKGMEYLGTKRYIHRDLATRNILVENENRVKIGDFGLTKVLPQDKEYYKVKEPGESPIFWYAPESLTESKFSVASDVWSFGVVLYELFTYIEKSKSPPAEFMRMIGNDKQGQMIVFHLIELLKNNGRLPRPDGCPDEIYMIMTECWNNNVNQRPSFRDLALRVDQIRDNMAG

Turning to `COc1nsc(NC(=O)N2C[C@H]3C[C@H](N(C)c4ncnc5[nH]ccc45)C[C@H]3C2)n1` [Example 34, (3aR,5S,6aS)—N-(3-Methoxy-1,2,4-thiadiazol-5-yl)-5-(methyl(7H-pyrrolo[2,3-d]pyrimidin-4-yl)amino)hexahydrocyclopenta[c]pyrrole-2(1H)-carboxamide], the IC50 in the series with T cells (72 h) is 0.054 µM; in series [1] it was 0.044 µM. For the same molecule, the “Half-Life t½” value in series [2] was determined as 2.10 ± 0.73 h.
On to `C[C@H](O)C(=O)N1C[C@H]2C[C@H](N(C)c3ncnc4[nH]ccc34)C[C@H]2C1` [Example 17, (S)-2-Hydroxy-1-((3aR,5R,6aS)-5-(methyl(7H-pyrrolo[2,3-d]pyrimidin-4-yl)amino)hexahydrocyclopenta[c]pyrrol-2(1H)-yl)propan-1-one], for which the figures for the IC50 (in the series with T cells (72 h); in series [1]) were 0.029 µM and 0.165 µM, respectively. In addition, the “Half-Life t½” value in series [2] was determined as 2.03 ± 0.82 h.
Regarding `CN(c1ccnc2[nH]ccc12)[C@H]1C[C@@H]2CN(C(=O)CO)C[C@@H]2C1` [Example 112, 2-hydroxy-1-((3aR,5S,6aS)-5-(methyl(1H-pyrrolo[2,3-b]pyridin-4-yl)amino)hexahydrocyclopenta[c]pyrrol-2(1H)-yl) ethanone], at JAK1 kinase, the IC50 was 0.096 µM.
On to `CCc1nsc(NC(=O)N2C[C@H]3C[C@H](N(C)c4ncnc5[nH]ccc45)C[C@H]3C2)n1` [Example 48, (3aR,5S,6aS)—N-(3-Ethyl-1,2,4-thiadiazol-5-yl)-5-(methyl(7H-pyrrolo[2,3-d]pyrimidin-4-yl)amino)hexahydrocyclopenta[c]pyrrole-2(1H)-carboxamide], for which the values for the IC50 (in the series on T cells (72 h); in series [1]) were 0.023 µM and 0.027 µM, respectively. The “Half-Life t½” value in series [2] was found to be 2.43 ± 0.75 h.
With `CN(c1ncnc2[nH]ccc12)C1C[C@@H]2CCN(C(=O)CO)C[C@@H]2C1` (stereo partly drawn) [Example 37, 2-Hydroxy-1-((4aS,7aR)-6-(methyl(7H-pyrrolo[2,3-d]pyrimidin-4-yl)amino)hexahydro-1H-cyclopenta[c]pyridin-2(3H,4H,4aH,5H,6H,7H,7aH)-yl)ethanone], the IC50 worked out at 0.453 µM with T cells (72 hours) and 0.123 µM in series [1].
On to `CN(c1ncnc2[nH]ccc12)[C@H]1C[C@@H]2CN(C(=O)Nc3nc(OCC(C)(C)O)ns3)C[C@@H]2C1` [Example 99], for which the IC50 at JAK1 kinase was determined as 0.0003 µM; on JAK2 kinase, 0.005 µM; in the series with T cells (72 h), 0.054 µM; in series [1] (TF-1, 72 h), 0.044 µM; on JAK3 kinase, 0.11 µM.
